Literature values, collected in patent publication US20090193593A1, “METHOD FOR REFRESHING FABRIC ARTICLES” (priority 2008, published 2009).
Counter-ions that a name gives are not always drawn.

OCCOc1ccccc1 [2-phenoxyethanol]
Solubility in water: about 2.67%

OCCc1ccccc1 [2-phenylethanol]
Solubility in water: about 2%

OCc1ccccc1 [benzyl alcohol]
Solubility in water: about 4%

[H]/N=C(\N/C(=N/[H])NCCCCCCNC(=N)NC(=N)Nc1ccc(Cl)cc1)Nc1ccc(Cl)cc1 [chlorhexidine diacetate salt, 1,1′-hexamethylene bis(5-(p-chlorophenyl)biguanide), reference compound]
Solubility in water: about 1.8%

[H]/N=C(\N/C(=N/[H])NCCCCCCNC(=N)NC(=N)Nc1ccc(Cl)cc1)Nc1ccc(Cl)cc1 [chlorhexidine digluconate salt, 1,1′-hexamethylene bis(5-(p-chlorophenyl)biguanide), reference compound]
Solubility in water: about 70%
